Experimental data from patent US10077261B2, “Imidazolin-5-one derivative useful as FASN inhibitors for the treatment of cancer” (Janssen Pharmaceutica NV, priority 2012, dated 2018).

Assays:
[1] = test system: A2780 ovarian cells; test: A2780 ovarian cell proliferation assay in lipid reduced medium, with palmitate (MTT); format: cell-based; conditions: Homo sapiens, A2780, 96 h; read-out: pIC50 A2780 Ovarian Cell, With Palmitate (converted)
Outline: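 In this palmitate-supplemented format, compound dilutions (30 μM down to 0.01 μM) are added to cells in lipid-reduced serum with 25 μM palmitate, 0.2% fatty-acid-free BSA and 0.25% ethanol. After four days (96 h) MTT absorbance at 544 nm is recorded and fitted by minimum sum of squares.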

[2] = test system: PC-3M-Luc-C6 prostate cells; test: In vitro PC-3M-Luc-C6 prostate cell proliferation assay in lipid reduced medium; format: cell-based; conditions: 96 h, read-out: pIC50 PC-3M-Luc-C6 prostate cell (converted)
[3] = target: T1, hFASN enzyme (full length) (Homo sapiens, UniProt P49327); test: Fatty Acid Synthase (FASN) inhibition scintillation proximity assay; format: biochemical; conditions: for inhibition at 10 µM: read-out: Human FASN % inhibition @ 10 μM, 10 μM test compound; for IC50: read-out: Human FASN pIC50 (converted)
T1 construct: 10 μL hFASN enzyme (full length, 300 ng, purified in house); made in house
T1 sequence (P49327 whole entry): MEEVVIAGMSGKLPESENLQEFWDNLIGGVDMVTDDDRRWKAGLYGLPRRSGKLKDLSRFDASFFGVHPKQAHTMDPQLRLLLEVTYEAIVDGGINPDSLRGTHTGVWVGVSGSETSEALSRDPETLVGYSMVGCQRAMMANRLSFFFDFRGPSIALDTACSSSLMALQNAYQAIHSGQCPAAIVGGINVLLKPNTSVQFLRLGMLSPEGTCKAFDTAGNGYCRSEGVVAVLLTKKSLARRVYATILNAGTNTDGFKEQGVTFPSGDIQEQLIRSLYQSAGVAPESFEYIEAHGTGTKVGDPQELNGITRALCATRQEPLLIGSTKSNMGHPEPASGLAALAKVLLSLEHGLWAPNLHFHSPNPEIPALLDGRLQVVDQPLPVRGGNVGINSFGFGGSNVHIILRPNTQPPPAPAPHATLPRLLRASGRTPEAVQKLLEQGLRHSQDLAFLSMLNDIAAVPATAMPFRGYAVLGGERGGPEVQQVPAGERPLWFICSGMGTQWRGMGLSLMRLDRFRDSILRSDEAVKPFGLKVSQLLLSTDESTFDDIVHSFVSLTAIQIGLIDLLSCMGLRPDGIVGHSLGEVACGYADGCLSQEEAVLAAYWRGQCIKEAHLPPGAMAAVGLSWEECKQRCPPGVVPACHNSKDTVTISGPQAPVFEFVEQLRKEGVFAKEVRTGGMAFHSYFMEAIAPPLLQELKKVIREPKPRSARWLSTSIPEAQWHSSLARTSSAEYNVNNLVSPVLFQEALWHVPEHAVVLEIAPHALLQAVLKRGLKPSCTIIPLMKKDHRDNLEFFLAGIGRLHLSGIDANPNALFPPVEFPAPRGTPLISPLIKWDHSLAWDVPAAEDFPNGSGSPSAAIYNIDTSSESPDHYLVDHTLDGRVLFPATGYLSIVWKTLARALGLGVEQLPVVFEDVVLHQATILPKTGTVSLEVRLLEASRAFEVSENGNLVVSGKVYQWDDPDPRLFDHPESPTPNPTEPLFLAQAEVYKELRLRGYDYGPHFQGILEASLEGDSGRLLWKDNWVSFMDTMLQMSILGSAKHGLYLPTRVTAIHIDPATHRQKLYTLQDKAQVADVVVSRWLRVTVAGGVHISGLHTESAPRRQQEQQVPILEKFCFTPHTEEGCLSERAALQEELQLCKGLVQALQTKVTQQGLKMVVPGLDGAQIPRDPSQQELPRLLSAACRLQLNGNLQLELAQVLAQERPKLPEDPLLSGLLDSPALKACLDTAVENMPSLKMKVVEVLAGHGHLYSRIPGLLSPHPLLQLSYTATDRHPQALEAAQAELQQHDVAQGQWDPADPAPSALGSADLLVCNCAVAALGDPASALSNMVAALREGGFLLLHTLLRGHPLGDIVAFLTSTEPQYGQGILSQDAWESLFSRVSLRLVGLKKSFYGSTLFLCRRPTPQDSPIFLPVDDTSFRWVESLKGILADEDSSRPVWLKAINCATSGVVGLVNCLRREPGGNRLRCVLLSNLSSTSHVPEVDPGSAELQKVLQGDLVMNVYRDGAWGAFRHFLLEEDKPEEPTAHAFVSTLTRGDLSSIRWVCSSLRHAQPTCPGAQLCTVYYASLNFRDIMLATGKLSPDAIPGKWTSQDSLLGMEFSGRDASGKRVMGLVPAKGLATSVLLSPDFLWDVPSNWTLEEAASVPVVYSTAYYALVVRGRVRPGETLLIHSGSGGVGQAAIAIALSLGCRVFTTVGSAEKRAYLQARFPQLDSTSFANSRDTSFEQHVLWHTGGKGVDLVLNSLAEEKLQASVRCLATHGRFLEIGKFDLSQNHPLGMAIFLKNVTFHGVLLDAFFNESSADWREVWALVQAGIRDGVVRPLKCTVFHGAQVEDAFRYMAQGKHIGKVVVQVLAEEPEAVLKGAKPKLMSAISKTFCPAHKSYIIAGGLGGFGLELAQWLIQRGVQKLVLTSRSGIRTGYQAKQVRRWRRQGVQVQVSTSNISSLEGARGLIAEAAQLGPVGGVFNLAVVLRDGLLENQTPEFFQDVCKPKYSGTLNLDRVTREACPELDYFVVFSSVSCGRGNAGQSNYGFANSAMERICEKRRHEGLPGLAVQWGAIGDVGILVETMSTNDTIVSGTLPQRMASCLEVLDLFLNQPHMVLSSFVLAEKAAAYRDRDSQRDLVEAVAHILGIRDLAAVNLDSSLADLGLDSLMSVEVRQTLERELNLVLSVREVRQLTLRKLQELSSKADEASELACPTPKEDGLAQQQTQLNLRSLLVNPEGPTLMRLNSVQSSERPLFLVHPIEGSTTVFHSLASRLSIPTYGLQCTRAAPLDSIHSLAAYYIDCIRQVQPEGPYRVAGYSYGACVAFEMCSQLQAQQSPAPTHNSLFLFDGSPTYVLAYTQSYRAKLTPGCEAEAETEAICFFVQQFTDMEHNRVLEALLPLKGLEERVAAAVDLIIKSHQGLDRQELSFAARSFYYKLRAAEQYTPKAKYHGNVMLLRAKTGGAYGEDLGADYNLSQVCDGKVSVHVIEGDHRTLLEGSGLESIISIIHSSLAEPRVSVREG
Outline: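 Scintillation proximity format: in-house full-length enzyme, 300 ng per well, pH 7.5 phosphate/DTT buffer, ³H-acetyl-CoA and malonyl-CoA. Emission counted on LEADseeker at 610 nm at least 24 h after stopping.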

[4] = target: Fatty Acid Synthase Keto-reductase Domain (FASN KR) (Homo sapiens, UniProt P49327); test: Fatty Acid Synthase keto-reductase domain (FASN KR) inhibition, NADPH oxidation at 340 nm
Chain of Fatty Acid Synthase Keto-reductase Domain (FASN KR) (P49327 whole entry, the tested form may be a part): as the sequence (P49327 whole entry) above
Protocol: After 20 minutes incubation at room temperature the plate was measured again (T2).
The decrease in absorbance was calculated as (Absorbance before incubation T1)−(Absorbance following incubation T2).
A plot of Controlmin versus test compound concentration was fitted to a 4-parameter logistic curve using a non-linear least squares regression method.

[5] = test system: LNCaP-Vancouver prostate cells; test: In vitro LNCaP Vancouver prostate cell proliferation assay in lipid reduced medium; format: cell-based; conditions: read-out: pIC50 LNCaP_Vancouver prostate cell (converted)
[6] = test system: A2780 ovarian cells; test: A2780 ovarian cell proliferation assay in lipid reduced medium, without palmitate (MTT); format: cell-based; conditions: Homo sapiens, A2780, 96 h; read-out: pIC50 A2780 Ovarian Cell, Without Palmitate (converted)

Cc1cc(-c2ccc3c(cnn3C)c2)ccc1C1=NC2(CC2)C(=O)N1C[C@@H]1CCN(C(=O)C2(C)CC2)C1 [compound 265, (R)-5-(2-methyl-4-(1-methyl-1H-indazol-5-yl)phenyl)-6-((1-(1-methylcyclopropanecarbonyl)pyrrolidin-3-yl)methyl)-4,6-diazaspiro[2.4]hept-4-en-7-one]
IC50 [1]: > 10 µM | IC50 [2]: ~0.00708 µM | inhibition at 10 µM [3]: 103% | IC50 [3]: 0.0457 µM | IC50 [4]: ~0.0537 µM | IC50 [5]: 0.0138 µM | IC50 [6]: ~0.00288 µM

Cc1cc2cc(-c3ccc(C4=NC5(CC5)C(=O)N4C[C@@H]4CCN(C(=O)C5(O)CC5)C4)c(F)c3)ccc2s1 [compound 354, (R)-5-(2-fluoro-4-(2-methylbenzo[b]thiophen-5-yl)phenyl)-6-((1-(1-hydroxycyclopropanecarbonyl)pyrrolidin-3-yl)methyl)-4,6-diazaspiro[2.4]hept-4-en-7-one]
IC50 [1]: > 10 µM | IC50 [2]: 0.0355 µM | inhibition at 10 µM [3]: 100% | IC50 [3]: 0.0501 µM | IC50 [4]: 0.112 µM | IC50 [5]: 0.245 µM | IC50 [6]: 0.0309 µM

O=C(C1CC1)N1CC[C@@H](CN2C(=O)C3(CC3)N=C2c2ccc(-c3ccc4[nH]ccc4c3)nc2)C1 [compound 402, 6-{[(3R)-1-(Cyclopropylcarbonyl)pyrrolidin-3-yl]methyl}-5-[6-(1H-indol-5-yl)pyridin-3-yl]-4,6-diazaspiro[2.4]hept-4-en-7-one]
IC50 [1]: > 10 µM | IC50 [2]: 0.174 µM | inhibition at 10 µM [3]: 102% | IC50 [3]: 0.138 µM | IC50 [4]: 0.302 µM | IC50 [5]: 1.74 µM | IC50 [6]: 0.174 µM

Cc1cc(-c2ccc3c(c2)CCO3)ccc1C1=NC2(CCCC2)C(=O)N1C[C@@H]1CCN(C(=O)C2CC2)C1 [compound 884, (R)-3-((1-(cyclopropanecarbonyl)pyrrolidin-3-yl)methyl)-2-(4-(2,3-dihydrobenzofuran-5-yl)-2-methylphenyl)-1,3-diazaspiro[4.4]non-1-en-4-one]
IC50 [1]: > 10 µM | IC50 [2]: ~1.82 µM | inhibition at 10 µM [3]: 100% | IC50 [3]: 0.288 µM | IC50 [4]: 0.741 µM | IC50 [5]: 3.02 µM | IC50 [6]: ~2.14 µM

O=C(C1CC1)N1CC[C@@H](CN2C(=O)C3(CC3)N=C2c2ccc(-c3ccc4[nH]cc(CCO)c4c3)cc2)C1 [compound 217, (R)-6-((1-(cyclopropanecarbonyl)pyrrolidin-3-yl)methyl)-5-(4-(3-(2-hydroxyethyl)-1H-indol-5-yl)phenyl)-4,6-diazaspiro[2.4]hept-4-en-7-one]
IC50 [1]: > 10 µM | IC50 [2]: 0.0501 µM | inhibition at 10 µM [3]: 103% | IC50 [3]: 0.0288 µM | IC50 [4]: 0.049 µM | IC50 [5]: 0.178 µM | IC50 [6]: 0.0302 µM

Cc1cc(-c2ccc(-c3cnn(C4CCC4)c3)cc2)ccc1C1=NC2(CC2)C(=O)N1CC1CN(C(=O)C2(C)CC2)C1 [compound 338, 5-(4′-(1-cyclobutyl-1H-pyrazol-4-yl)-3-methyl-[1,1′-biphenyl]-4-yl)-6-((1-(1-methylcyclopropanecarbonyl)azetidin-3-yl)methyl)-4,6-diazaspiro[2.4]hept-4-en-7-one]
IC50 [1]: ~4.27 µM | IC50 [2]: 0.0191 µM | inhibition at 10 µM [3]: 106% | IC50 [3]: 0.0437 µM | IC50 [4]: 0.148 µM | IC50 [5]: 0.126 µM | IC50 [6]: 0.0219 µM

Cc1cc2cc(-c3ccc(C4=NC5(CC5)C(=O)N4C[C@@H]4CCN(C(=O)C5CC5)C4)cc3)ccc2s1 [compound 295, (R)-6-((1-(cyclopropanecarbonyl)pyrrolidin-3-yl)methyl)-5-(4-(2-methylbenzo[b]thiophen-5-yl)phenyl)-4,6-diazaspiro[2.4]hept-4-en-7-one]
IC50 [1]: > 10 µM | IC50 [2]: ~0.575 µM | inhibition at 10 µM [3]: 100% | IC50 [3]: 0.0537 µM | IC50 [4]: 0.105 µM | IC50 [5]: 1.29 µM | IC50 [6]: 0.631 µM

O=C(C1CC1)N1CC[C@@H](CN2C(=O)C3(CC3)N=C2c2ccc(-c3ccc4c(c3)CCO4)cc2)C1 [compound 462, 6-{[(3R)-1-(Cyclopropylcarbonyl)pyrrolidin-3-yl]methyl}-5-[4-(2,3-dihydro-1-benzofuran-5-yl)phenyl]-4,6-diazaspiro[2.4]hept-4-en-7-one]
IC50 [1]: > 10 µM | IC50 [2]: 1.17 µM | inhibition at 10 µM [3]: 98% | IC50 [3]: 0.158 µM | IC50 [4]: 0.912 µM | IC50 [5]: 2.34 µM | IC50 [6]: 1.86 µM

O=C(C1CC1)N1CC(CN2C(=O)C3(CC3)N=C2c2ccc(-c3ccc4ccccc4c3)cc2F)C1 [compound 368, 6-((1-(1-cyclopropanecarbonyl)azetidin-3-yl)methyl)-5-(2-fluoro-4-(naphthalen-2-yl)phenyl)-4,6-diazaspiro[2.4]hept-4-en-7-one]
IC50 [1]: 4.47 µM | IC50 [2]: 0.0288 µM | inhibition at 10 µM [3]: 90% | IC50 [3]: 0.0282 µM | IC50 [4]: 0.0589 µM | IC50 [5]: 0.214 µM | IC50 [6]: 0.0214 µM

O=C(N1CC(CN2C(=O)C3(CC3)N=C2c2ccc(-c3ccc4ccc(F)cc4c3)cc2F)C1)C1(O)CC1 [compound 384, 5-(2-fluoro-4-(7-fluoronaphthalen-2-yl)phenyl)-6-((1-(1-hydroxycyclopropanecarbonyl)azetidin-3-yl)methyl)-4,6-diazaspiro[2.4]hept-4-en-7-one]
IC50 [1]: 5.25 µM | IC50 [2]: 0.166 µM | inhibition at 10 µM [3]: 100% | IC50 [3]: 0.0631 µM | IC50 [4]: ~0.851 µM | IC50 [5]: 0.832 µM | IC50 [6]: 0.0724 µM

O=C(C1CC1)N1CC[C@@H](CN2C(=O)C3(CC3)N=C2c2ccc(-c3ccc(F)c(Cl)c3)cc2)C1 [compound 209, (R)-5-(3-chloro-4-fluoro-[1,1-biphenyl]-4-yl)-6-((1-(cyclopropanecarbonyl)pyrrolidin-3-yl)methyl)-4,6-diazaspiro[2.4]hept-4-en-7-one]
IC50 [1]: > 10 µM | IC50 [2]: ~0.776 µM | inhibition at 10 µM [3]: 108% | IC50 [3]: 0.0891 µM | IC50 [4]: 0.257 µM | IC50 [5]: 4.17 µM | IC50 [6]: 1.86 µM

Cc1cc(-c2ccc3cc(Cl)ccc3c2)ccc1C1=NC2(CC2)C(=O)N1CC1CN(C(=O)C2(C)CC2)C1 [compound 321, 5-(4-(6-chloronaphthalen-2-yl)-2-methylphenyl)-6-((1-(1-methylcyclopropanecarbonyl)azetidin-3-yl)methyl)-4,6-diazaspiro[2.4]hept-4-en-7-one]
IC50 [1]: 4.37 µM | IC50 [2]: 0.0501 µM | inhibition at 10 µM [3]: 99% | IC50 [3]: 0.0302 µM | IC50 [4]: 0.0479 µM | IC50 [5]: 0.182 µM | IC50 [6]: 0.0178 µM

O=C(C1CC1)N1CC[C@@H](CN2C(=O)C3(CC3)N=C2c2ccc(-c3cccc4ncccc34)cc2)C1 [compound 310, (R)-6-((1-(cyclopropanecarbonyl)pyrrolidin-3-yl)methyl)-5-(4-(quinolin-5-yl)phenyl)-4,6-diazaspiro[2.4]hept-4-en-7-one]
IC50 [1]: > 6.17 µM | IC50 [2]: ~0.324 µM | inhibition at 10 µM [3]: 102% | IC50 [3]: 0.0398 µM | IC50 [4]: 0.0603 µM | IC50 [5]: 0.813 µM | IC50 [6]: 0.589 µM

O=C(C1CC1)N1CC[C@@H](CN2C(=O)C3(CC3)N=C2c2ccc(-c3ccc4cccc(F)c4c3)cc2)C1 [compound 313, (R)-6-((1-(cyclopropanecarbonyl)pyrrolidin-3-yl)methyl)-5-(4-(8-fluoronaphthalen-2-yl)phenyl)-4,6-diazaspiro[2.4]hept-4-en-7-one]
IC50 [1]: 8.71 µM | IC50 [2]: ~0.0525 µM | inhibition at 10 µM [3]: 99% | IC50 [3]: 0.0389 µM | IC50 [4]: 0.0525 µM | IC50 [5]: 0.155 µM | IC50 [6]: 0.0537 µM

O=C(C1CC1)N1CC[C@@H](CN2C(=O)C3(CC3)N=C2c2ccc(-c3ccc4c(Cl)nccc4c3)cc2)C1 [compound 479, 5-[4-(1-Chloroisoquinolin-6-yl)phenyl]-6-{[(3R)-1-(cyclopropylcarbonyl)pyrrolidin-3-yl]methyl}-4,6-diazaspiro[2.4]hept-4-en-7-one]
IC50 [1]: > 10 µM | IC50 [2]: 0.302 µM | inhibition at 10 µM [3]: 95% | IC50 [3]: 0.162 µM | IC50 [4]: 0.447 µM | IC50 [5]: 0.933 µM | IC50 [6]: 0.692 µM

O=C(N1CCCC1)N1CC[C@@H](CN2C(=O)C3(CCOCC3)N=C2c2ccc(-c3ccc4cccnc4c3)cc2)C1 [compound 665, 3-{[(3S)-1-(Pyrrolidin-1-ylcarbonyl)pyrrolidin-3-yl]methyl}-2-(4-quinolin-7-ylphenyl)-8-oxa-1,3-diazaspiro[4.5]dec-1-en-4-one]
IC50 [1]: > 10 µM | IC50 [2]: 0.794 µM | inhibition at 10 µM [3]: 94% | IC50 [3]: 0.324 µM | IC50 [4]: 0.631 µM | IC50 [5]: 1.23 µM | IC50 [6]: 0.55 µM

Cc1cc(C2=NC3(CC3)C(=O)N2C[C@@H]2CCN(C(=O)C3CC3)C2)ccc1-c1ccc2[nH]ncc2c1 [compound 444, 6-{[(3R)-1-(Cyclopropylcarbonyl)pyrrolidin-3-yl]methyl}-5-[4-(1H-indazol-5-yl)-3-methylphenyl]-4,6-diazaspiro[2.4]hept-4-en-7-one]
IC50 [1]: > 10 µM | IC50 [2]: 0.417 µM | inhibition at 10 µM [3]: 95% | IC50 [3]: 0.251 µM | IC50 [4]: 0.562 µM | IC50 [5]: 1.82 µM | IC50 [6]: ~0.209 µM
